In ChEMBL document CHEMBL4507302, “Data for DCP probe TP-020” (2021):

Assays:
[1] = molecular target: AP2-associated protein kinase 1 (Homo sapiens) (UniProt Q2M2I8); settings: Compound concentration 1000.0 nM
[2] = test system: Tyrosine-protein kinase ABL1 (Homo sapiens), P00519 [T315I]; settings: Compound concentration 1000.0 nM
[3] = molecular target: Tyrosine-protein kinase BTK (Homo sapiens) (UniProt Q06187); settings: Compound concentration 1000.0 nM
[4] = molecular target: Calcium/calmodulin-dependent protein kinase type II subunit alpha (Homo sapiens) (UniProt Q9UQM7); settings: Compound concentration 1000.0 nM
[5] = molecular target: Cyclin-dependent kinase 2 (Homo sapiens) (UniProt P24941); settings: Compound concentration 1000.0 nM
[6] = molecular target: Cyclin-dependent kinase-like 2 (Homo sapiens) (UniProt Q92772); settings: Compound concentration 1000.0 nM
[7] = molecular target: Dual specificity protein kinase CLK2 (Homo sapiens) (UniProt P49760); settings: Compound concentration 1000.0 nM
[8] = molecular target: Casein kinase I isoform gamma-3 (Homo sapiens) (UniProt Q9Y6M4); settings: Compound concentration 1000.0 nM
[9] = molecular target: Death-associated protein kinase 2 (Homo sapiens) (UniProt Q9UIK4); settings: Compound concentration 1000.0 nM
[10] = molecular target: Death-associated protein kinase 3 (Homo sapiens) (UniProt O43293); settings: Compound concentration 1000.0 nM
Chain of Death-associated protein kinase 3 (Homo sapiens) (O43293 whole entry, looked up): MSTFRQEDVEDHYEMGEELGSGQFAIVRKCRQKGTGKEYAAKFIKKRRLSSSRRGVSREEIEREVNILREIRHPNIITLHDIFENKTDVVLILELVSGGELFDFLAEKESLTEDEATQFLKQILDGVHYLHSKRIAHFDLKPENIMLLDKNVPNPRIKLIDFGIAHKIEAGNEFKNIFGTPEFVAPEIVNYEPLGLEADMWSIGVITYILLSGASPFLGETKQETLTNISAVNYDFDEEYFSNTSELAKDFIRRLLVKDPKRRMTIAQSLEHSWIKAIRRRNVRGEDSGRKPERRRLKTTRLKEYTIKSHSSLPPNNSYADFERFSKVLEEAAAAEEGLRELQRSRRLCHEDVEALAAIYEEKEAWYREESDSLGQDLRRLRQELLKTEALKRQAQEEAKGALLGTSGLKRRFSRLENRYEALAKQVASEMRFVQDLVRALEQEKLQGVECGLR

[11] = molecular target: Serine/threonine-protein kinase MRCK gamma (Homo sapiens) (UniProt Q6DT37); settings: Compound concentration 1000.0 nM
[12] = molecular target: Dual specificity tyrosine-phosphorylation-regulated kinase 1A (Homo sapiens) (UniProt Q13627); settings: Compound concentration 1000.0 nM
[13] = molecular target: Tyrosine-protein kinase Fer (Homo sapiens) (UniProt P16591); settings: Compound concentration 1000.0 nM
[14] = molecular target: Tyrosine-protein kinase Fes/Fps (Homo sapiens) (UniProt P07332); settings: Compound concentration 1000.0 nM
[15] = molecular target: Vascular endothelial growth factor receptor 1 (Homo sapiens) (UniProt P17948); settings: Compound concentration 1000.0 nM
[16] = molecular target: Rhodopsin kinase GRK7 (Homo sapiens) (UniProt Q8WTQ7); settings: Compound concentration 1000.0 nM
[17] = molecular target: Insulin receptor (Homo sapiens) (UniProt P06213); settings: Compound concentration 1000.0 nM
Chain of Insulin receptor (Homo sapiens) (P06213 28-758 limits assumed): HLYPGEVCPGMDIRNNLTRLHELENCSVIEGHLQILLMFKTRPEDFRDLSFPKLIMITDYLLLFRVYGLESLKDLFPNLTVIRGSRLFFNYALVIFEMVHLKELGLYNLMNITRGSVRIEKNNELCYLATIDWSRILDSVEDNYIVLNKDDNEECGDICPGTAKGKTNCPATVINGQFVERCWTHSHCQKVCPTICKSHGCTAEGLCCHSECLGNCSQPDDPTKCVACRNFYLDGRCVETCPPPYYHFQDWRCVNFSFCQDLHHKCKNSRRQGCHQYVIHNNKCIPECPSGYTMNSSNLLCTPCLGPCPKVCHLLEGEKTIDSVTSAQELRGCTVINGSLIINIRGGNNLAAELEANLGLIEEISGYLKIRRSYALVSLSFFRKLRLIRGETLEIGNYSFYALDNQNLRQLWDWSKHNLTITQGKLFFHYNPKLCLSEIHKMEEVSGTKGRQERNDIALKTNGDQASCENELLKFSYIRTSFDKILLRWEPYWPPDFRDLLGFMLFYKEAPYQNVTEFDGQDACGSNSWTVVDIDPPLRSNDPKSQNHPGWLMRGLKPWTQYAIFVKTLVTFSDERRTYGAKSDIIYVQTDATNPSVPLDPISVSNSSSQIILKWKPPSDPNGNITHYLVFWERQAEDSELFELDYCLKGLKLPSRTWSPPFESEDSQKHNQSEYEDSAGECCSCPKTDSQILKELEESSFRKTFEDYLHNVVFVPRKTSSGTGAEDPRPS
Chain of Insulin receptor (Homo sapiens) (P06213 763-1382 limits assumed): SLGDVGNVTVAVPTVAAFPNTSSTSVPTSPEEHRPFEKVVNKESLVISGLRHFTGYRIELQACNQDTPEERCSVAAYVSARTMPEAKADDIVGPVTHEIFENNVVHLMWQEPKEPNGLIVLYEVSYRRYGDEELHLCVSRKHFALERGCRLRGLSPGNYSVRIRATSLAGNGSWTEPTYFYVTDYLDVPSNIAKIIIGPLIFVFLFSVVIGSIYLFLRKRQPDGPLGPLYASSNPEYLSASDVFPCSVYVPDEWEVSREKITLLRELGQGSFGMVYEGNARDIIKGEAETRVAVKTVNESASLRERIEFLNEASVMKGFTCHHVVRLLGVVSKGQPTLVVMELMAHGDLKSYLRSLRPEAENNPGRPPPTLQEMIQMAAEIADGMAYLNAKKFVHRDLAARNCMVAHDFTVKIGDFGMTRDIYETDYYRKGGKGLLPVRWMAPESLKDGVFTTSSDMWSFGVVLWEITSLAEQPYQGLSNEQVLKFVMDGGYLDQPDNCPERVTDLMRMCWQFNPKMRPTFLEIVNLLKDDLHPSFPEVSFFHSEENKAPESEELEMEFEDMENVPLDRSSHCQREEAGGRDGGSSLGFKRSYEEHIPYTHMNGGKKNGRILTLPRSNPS

[18] = test system: Mast/stem cell growth factor receptor Kit (Homo sapiens), P10721 [V559D,V654A]; settings: Compound concentration 1000.0 nM
[19] = molecular target: Tyrosine-protein kinase Mer (Homo sapiens) (UniProt Q12866); settings: Compound concentration 1000.0 nM
[20] = molecular target: Hepatocyte growth factor receptor (Homo sapiens) (UniProt P08581); settings: Compound concentration 1000.0 nM
[21] = molecular target: Dual specificity mitogen-activated protein kinase kinase 7 (Homo sapiens) (UniProt O14733); settings: Compound concentration 1000.0 nM
[22] = molecular target: MAP kinase-interacting serine/threonine-protein kinase 2 (Homo sapiens) (UniProt Q9HBH9); settings: Compound concentration 1000.0 nM
[23] = molecular target: Myosin light chain kinase (Homo sapiens) (UniProt Q32MK0); settings: Compound concentration 1000.0 nM
Chain of Myosin light chain kinase (Homo sapiens) (Q32MK0 whole entry): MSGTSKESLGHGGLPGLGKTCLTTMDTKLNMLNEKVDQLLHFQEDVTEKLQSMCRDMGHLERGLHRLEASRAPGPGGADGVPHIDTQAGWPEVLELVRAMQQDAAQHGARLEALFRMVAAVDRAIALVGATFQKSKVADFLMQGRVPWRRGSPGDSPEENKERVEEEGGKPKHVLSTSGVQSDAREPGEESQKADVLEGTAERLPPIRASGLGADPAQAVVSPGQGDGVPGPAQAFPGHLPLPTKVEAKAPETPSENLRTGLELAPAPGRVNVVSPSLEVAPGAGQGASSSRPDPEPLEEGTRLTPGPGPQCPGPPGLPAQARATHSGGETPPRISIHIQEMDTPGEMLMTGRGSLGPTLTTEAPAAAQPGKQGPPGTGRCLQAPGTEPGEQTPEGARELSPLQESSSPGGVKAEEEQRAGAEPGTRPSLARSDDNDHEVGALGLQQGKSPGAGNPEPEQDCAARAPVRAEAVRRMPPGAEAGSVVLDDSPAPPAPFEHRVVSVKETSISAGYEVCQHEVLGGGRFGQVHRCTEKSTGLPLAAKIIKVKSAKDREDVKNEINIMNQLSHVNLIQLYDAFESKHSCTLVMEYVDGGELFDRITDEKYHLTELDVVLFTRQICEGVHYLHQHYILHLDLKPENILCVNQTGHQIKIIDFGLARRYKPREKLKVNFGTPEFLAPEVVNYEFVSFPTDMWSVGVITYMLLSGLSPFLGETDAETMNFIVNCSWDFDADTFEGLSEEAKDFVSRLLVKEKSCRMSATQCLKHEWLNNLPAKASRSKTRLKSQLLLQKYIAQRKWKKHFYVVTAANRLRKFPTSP

[24] = molecular target: Serine/threonine-protein kinase Nek2 (Homo sapiens) (UniProt P51955); settings: Compound concentration 1000.0 nM
[25] = molecular target: Serine/threonine-protein kinase Nek3 (Homo sapiens) (UniProt P51956); settings: Compound concentration 1000.0 nM
[26] = molecular target: Mitogen-activated protein kinase 12 (Homo sapiens) (UniProt P53778); settings: Compound concentration 1000.0 nM
[27] = molecular target: 3-phosphoinositide-dependent protein kinase 1 (Homo sapiens) (UniProt O15530); settings: Compound concentration 1000.0 nM
[28] = molecular target: Phosphorylase b kinase gamma catalytic chain, skeletal muscle/heart isoform (Homo sapiens) (UniProt Q16816); settings: Compound concentration 1000.0 nM
[29] = molecular target: Serine/threonine-protein kinase pim-2 (Homo sapiens) (UniProt Q9P1W9); settings: Compound concentration 1000.0 nM
[30] = molecular target: Phosphatidylinositol 5-phosphate 4-kinase type-2 gamma (Homo sapiens) (UniProt Q8TBX8); settings: Compound concentration 1000.0 nM
[31] = molecular target: Serine/threonine-protein kinase PLK1 (Homo sapiens) (UniProt P53350); settings: Compound concentration 1000.0 nM
Chain of Serine/threonine-protein kinase PLK1 (Homo sapiens) (P53350 whole entry): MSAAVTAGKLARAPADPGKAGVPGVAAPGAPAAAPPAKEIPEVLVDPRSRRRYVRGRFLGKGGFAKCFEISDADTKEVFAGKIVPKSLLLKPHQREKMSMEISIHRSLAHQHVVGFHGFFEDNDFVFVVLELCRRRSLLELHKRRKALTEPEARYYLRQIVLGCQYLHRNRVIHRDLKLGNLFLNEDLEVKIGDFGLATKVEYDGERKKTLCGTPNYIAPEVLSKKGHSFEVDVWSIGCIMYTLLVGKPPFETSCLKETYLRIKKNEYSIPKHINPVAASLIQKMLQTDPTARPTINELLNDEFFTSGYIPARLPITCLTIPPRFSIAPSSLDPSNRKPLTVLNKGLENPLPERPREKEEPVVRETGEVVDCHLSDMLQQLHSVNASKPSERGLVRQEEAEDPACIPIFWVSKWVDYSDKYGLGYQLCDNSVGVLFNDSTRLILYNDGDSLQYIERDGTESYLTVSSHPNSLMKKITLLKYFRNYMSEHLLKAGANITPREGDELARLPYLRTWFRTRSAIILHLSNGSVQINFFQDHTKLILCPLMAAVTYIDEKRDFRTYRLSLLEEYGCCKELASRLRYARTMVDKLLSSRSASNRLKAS

[32] = molecular target: Serine/threonine-protein kinase PLK3 (Homo sapiens) (UniProt Q9H4B4); settings: Compound concentration 1000.0 nM
[33] = molecular target: Protein kinase C eta type (Homo sapiens) (UniProt P24723); settings: Compound concentration 1000.0 nM
[34] = molecular target: Serine/threonine-protein kinase D1 (Homo sapiens) (UniProt Q15139); settings: Compound concentration 1000.0 nM
[35] = test system: Proto-oncogene tyrosine-protein kinase receptor Ret (Homo sapiens), P07949 [V804L]; settings: Compound concentration 1000.0 nM
[36] = molecular target: Serine/threonine-protein kinase RIO1 (Homo sapiens) (UniProt Q9BRS2); settings: Compound concentration 1000.0 nM
[37] = molecular target: Ribosomal protein S6 kinase alpha-4 (Homo sapiens) (UniProt O75676); settings: Compound concentration 1000.0 nM
Chain of Ribosomal protein S6 kinase alpha-4 (Homo sapiens) (O75676 whole entry, looked up): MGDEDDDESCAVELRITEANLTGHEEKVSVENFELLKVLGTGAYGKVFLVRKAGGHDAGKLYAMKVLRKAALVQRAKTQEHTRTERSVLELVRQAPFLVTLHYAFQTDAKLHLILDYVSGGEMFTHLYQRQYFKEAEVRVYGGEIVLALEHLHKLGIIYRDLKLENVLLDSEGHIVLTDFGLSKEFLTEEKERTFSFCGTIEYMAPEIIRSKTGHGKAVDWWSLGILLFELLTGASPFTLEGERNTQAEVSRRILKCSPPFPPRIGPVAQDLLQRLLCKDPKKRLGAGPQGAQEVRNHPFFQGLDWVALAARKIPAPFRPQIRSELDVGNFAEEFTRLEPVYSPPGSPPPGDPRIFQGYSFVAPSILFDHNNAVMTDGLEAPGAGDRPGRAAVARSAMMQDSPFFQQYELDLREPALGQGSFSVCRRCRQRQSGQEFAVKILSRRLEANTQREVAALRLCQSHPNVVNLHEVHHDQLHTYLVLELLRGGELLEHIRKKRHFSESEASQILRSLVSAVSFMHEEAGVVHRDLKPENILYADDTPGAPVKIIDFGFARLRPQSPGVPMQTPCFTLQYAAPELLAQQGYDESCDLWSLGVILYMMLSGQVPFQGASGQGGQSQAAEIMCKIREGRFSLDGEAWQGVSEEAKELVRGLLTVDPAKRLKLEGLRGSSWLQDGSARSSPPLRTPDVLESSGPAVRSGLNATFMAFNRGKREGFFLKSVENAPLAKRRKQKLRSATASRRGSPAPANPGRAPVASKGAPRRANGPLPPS

[38] = molecular target: Serine/threonine-protein kinase Sgk2 (Homo sapiens) (UniProt Q9HBY8); settings: Compound concentration 1000.0 nM
Chain of Serine/threonine-protein kinase Sgk2 (Homo sapiens) (Q9HBY8 whole entry): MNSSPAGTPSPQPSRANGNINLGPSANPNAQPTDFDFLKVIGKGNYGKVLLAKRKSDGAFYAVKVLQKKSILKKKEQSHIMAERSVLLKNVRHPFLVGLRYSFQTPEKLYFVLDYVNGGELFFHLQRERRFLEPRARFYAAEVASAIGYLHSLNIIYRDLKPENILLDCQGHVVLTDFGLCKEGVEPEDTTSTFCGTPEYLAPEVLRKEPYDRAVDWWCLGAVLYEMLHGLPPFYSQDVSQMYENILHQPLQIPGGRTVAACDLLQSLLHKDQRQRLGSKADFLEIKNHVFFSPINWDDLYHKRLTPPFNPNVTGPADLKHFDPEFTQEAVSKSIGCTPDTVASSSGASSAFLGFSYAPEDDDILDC

[39] = molecular target: STE20/SPS1-related proline-alanine-rich protein kinase (Homo sapiens) (UniProt Q9UEW8); settings: Compound concentration 1000.0 nM
[40] = molecular target: Mitogen-activated protein kinase kinase kinase 7 (Homo sapiens) (UniProt O43318); settings: Compound concentration 1000.0 nM
[41] = molecular target: High affinity nerve growth factor receptor (Homo sapiens) (UniProt P04629); settings: Compound concentration 1000.0 nM
[42] = molecular target: Non-receptor tyrosine-protein kinase TYK2 (Homo sapiens) (UniProt P29597); settings: Compound concentration 1000.0 nM
[43] = molecular target: Mitogen-activated protein kinase kinase kinase 19 (Homo sapiens) (UniProt Q56UN5); settings: Compound concentration 1000.0 nM
[44] = molecular target: D(2) dopamine receptor (Homo sapiens) (UniProt P14416); settings: Compound concentration 10.0 uM
Chain of D(2) dopamine receptor (Homo sapiens) (P14416 whole entry): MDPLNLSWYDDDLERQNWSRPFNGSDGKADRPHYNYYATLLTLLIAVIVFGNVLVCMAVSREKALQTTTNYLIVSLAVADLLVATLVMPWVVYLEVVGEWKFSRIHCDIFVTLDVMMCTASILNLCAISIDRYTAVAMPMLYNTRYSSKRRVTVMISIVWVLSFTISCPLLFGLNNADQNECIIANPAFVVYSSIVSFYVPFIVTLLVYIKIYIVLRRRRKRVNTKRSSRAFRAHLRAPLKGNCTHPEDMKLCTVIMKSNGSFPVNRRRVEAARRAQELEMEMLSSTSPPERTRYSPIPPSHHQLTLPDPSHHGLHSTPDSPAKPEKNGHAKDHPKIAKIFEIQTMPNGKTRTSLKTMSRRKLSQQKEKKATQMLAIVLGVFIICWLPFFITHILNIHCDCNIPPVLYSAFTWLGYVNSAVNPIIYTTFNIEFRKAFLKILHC

[45] = molecular target: Muscarinic acetylcholine receptor M4 (Homo sapiens) (UniProt P08173); settings: Compound concentration 10.0 uM

Nc1cnc(N2CCc3cc(S(=O)(=O)Nc4c(F)cc(Cl)cc4F)cc(N4CCCC4=O)c32)nc1
inactive: residual activity [1] 100% | residual activity [2] 98% | residual activity [3] 100% | residual activity [4] 92% | residual activity [5] 100% | residual activity [6] 85% | residual activity [7] 100% | residual activity [8] 78% | residual activity [9] 91% | residual activity [10] 83% | residual activity [11] 100% | residual activity [12] 80% | residual activity [13] 100% | residual activity [14] 100% | residual activity [15] 93% | residual activity [16] 99% | residual activity [17] 89% | residual activity [18] 100% | residual activity [19] 100% | residual activity [20] 69% | residual activity [21] 100% | residual activity [22] 100% | residual activity [23] 100% | residual activity [24] 89% | residual activity [25] 100% | residual activity [26] 100% | residual activity [27] 98% | residual activity [28] 71% | residual activity [29] 85% | residual activity [30] 100% | residual activity [31] 100% | residual activity [32] 100% | residual activity [33] 80% | residual activity [34] 83% | residual activity [35] 99% | residual activity [36] 100% | residual activity [37] 100% | residual activity [38] 76% | residual activity [39] 100% | residual activity [40] 100% | residual activity [41] 100% | residual activity [42] 100% | residual activity [43] 100% | inhibition [44] -0.42% | inhibition [45] 9.99%

Cn1nc(C(F)(F)F)cc1-c1cnc(N2CCc3cc(S(=O)(=O)Nc4c(F)cc(Cl)cc4F)cc(N4CCCC4=O)c32)nc1 [TP-020]
inactive: residual activity [1] 100% | residual activity [2] 82% | residual activity [3] 85% | residual activity [4] 75% | residual activity [5] 100% | residual activity [6] 100% | residual activity [7] 86% | residual activity [8] 81% | residual activity [9] 94% | residual activity [10] 97% | residual activity [11] 100% | residual activity [12] 93% | residual activity [13] 100% | residual activity [14] 100% | residual activity [15] 95% | residual activity [16] 85% | residual activity [17] 89% | residual activity [18] 89% | residual activity [19] 100% | residual activity [20] 100% | residual activity [21] 98% | residual activity [22] 94% | residual activity [23] 84% | residual activity [24] 100% | residual activity [25] 90% | residual activity [26] 83% | residual activity [27] 100% | residual activity [28] 98% | residual activity [29] 100% | residual activity [30] 66% | residual activity [31] 93% | residual activity [32] 79% | residual activity [33] 90% | residual activity [34] 80% | residual activity [35] 100% | residual activity [36] 96% | residual activity [37] 82% | residual activity [38] 100% | residual activity [39] 91% | residual activity [40] 79% | residual activity [41] 69% | residual activity [42] 78% | residual activity [43] 82% | inhibition [44] -0.24% | inhibition [45] 41.2%
